Results from PMC11678373 (Pharmaceutics, 2024).
“And” between values parts separate entries of the source, which are not always exact repeats. Equal values may be shown once. Read-outs that look alike come from different tables or passages of the source.

How the values were obtained:
[1] = Long-term stability in plasma (bioanalytical validation); type: physicochemical, rat; conditions: plasma QC samples, −20 °C storage
Experimental: The concentrations were diluted in five replicates.
Short-term and long-term stability were tested at −20 °C storage conditions and ambient temperature at processing conditions. For the short term, three cycles of freezing and thawing within three days were applied.
All met ICH acceptance criteria.

CYP2D6 = conditions: cited from earlier work
CYP3A4 = conditions: cited from earlier work
[2] = Pharmacokinetics of REG, M-2 and M-5 in rats after single oral REG with or without OLA; type: in vivo, male Wistar rats
Experimental: (§1) Healthy, 14-week-old adult male Wistar rats purchased from the Anima Sp. z o. o. SK and ViVARI s.c. (Warszawa, Poland) were used in the study. The animals were housed for one week in a temperature- and humidity-controlled room with a 12-h light/dark cycle and fed a standard diet with free access to fresh water.
(§2) This reduced the number of animals included in the experiment, which is consistent with the 3R concept. The same drugs (same manufacturer, same dose) were administered in the study group IREG+OLA, but from different batches than in the control groups. No other experimental conditions were changed.
(§3) The samples were centrifuged (2880 g, 10 min at 4 °C), and the plasma was stored at −80 °C until analyzed.
A Cortecs UPLC C18 column (2.1 × 50 mm, 1.6 μm) was used in combination with a VanGuard Acquity UPLC BEH C18 pre-column (2.1 × 5 mm, 3/Pk, Waters Corporation). The injection volume was 5 μL, the autosampler temperature was 4 °C, and the column temperature was 40 °C. The composition of mobile phase A was 0.1% aqueous formic acid solution (v/v), and phase B was acetonitrile/methanol and 0.1% aqueous formic acid solution in a ratio of 1:3 (v/v). The total run time was 5 min. The gradient was as follows: 0–0.5 min with 10% B; 0.5–3 min, 95% B; 3–4 min, 95% B; 4–4.1 min, 10% B; 4.1–5 min, 10% B. The flow rate was 0.4 mL/min. Multiple reaction monitoring (MRM) experiments using positive electrospray ionization (ESI) were performed to analyze the samples.
The following settings of the Xevo TQ-S micro mass spectrometer were used: source temperature 150 °C, desolvation temperature 600 °C, nitrogen gas flow 900 L/h, capillary voltage 3.6 kV.
(§4) The values of the pharmacokinetic parameters of OLA, REG, and M-2 and M-5 were determined by non-compartmental analysis with linear interpolation. PKanalix 2023R1 software (Lixoft, Antony, France) was used to calculate the elimination rate constant (kel), the absorption rate constant (ka), the half-life in the elimination phase (t1/2), the area under the concentration–time curve from zero to the last measurable concentration (AUC0–t), the area under the plasma concentration–time curve from zero to infinity (AUC0–∞), the apparent plasma drug clearance (Cl/F), and the apparent volume of distribution (Vd/F). The maximum plasma concentration (Cmax) and the time to reach the Cmax (tmax) were obtained directly from the measured values. All these parameters were presented as arithmetic mean ± standard deviation (SD) and subjected to statistical analysis.

CYP2C9 = conditions: cited from earlier work
[3] = single oral REG 20 mg/kg b.w. alone (IIREG control, n = 8), mean ± SD, adapted from previous project ref 39, cited from earlier work; for AUC0–t / AUC0–∞: metabolite in plasma
CYP2C8 = conditions: cited from earlier work
CYP3A4/5 = test system: CYP3A4/5; set-up: method as in PMID 28657402, PMID 27684210; conditions: cited from earlier work
[4] = OLA; single oral OLA 100 mg/kg b.w. alone (IIIOLA control, n = 8); mean ± SD; adapted from previous project ref 40; cited from earlier work
P-gp vesicles = test system: P-gp vesicles; set-up: method as in Deng et al. 36; conditions: ref Deng et al. 36; cited from earlier work
[5] = Pharmacokinetics of OLA in rats after single oral OLA with or without REG; type: in vivo, male Wistar rats
Experimental: as §1, §2, §3
OLA in animal plasma samples was quantified using an Acquity 1-class PLUS ultra-high performance liquid chromatograph coupled to a Xevo TQ-S micro triple quadrupole mass spectrometer (Waters Corporation, 34 Maple Street, Milford, MA, USA). A Cortecs UPLC C18 column (2.1 × 50 mm, 1.6 µm, Waters Corporation, 34 Maple Street, Milford, MA, USA) was used for the chromatographic separation. The column temperature and injection volume were set at 40 °C and 1 µL, respectively. The mobile phase consisted of acetonitrile (eluent A) and 2 mM ammonium acetate in water (eluent B) with 0.1% 98–100% formic acid. The flow rate was kept at 0.3 mL/min. The elution gradient was as follows: 0–3 min, 5% A; 4–5 min, 95% A; 3–5 min, linear from 5% to 95% A; 5–6 min, linear from 95% to 5% A. The mass spectrometer was operated in multiple reaction monitoring mode. Two transitions were monitored for OLA and OLA-d4 as an internal standard (IS): m/z 435.1→367.1 and 435.1→281.0 (qualifier transition) for OLA and m/z 439.1→367.1 and 439.1→281.0 for IS.
as §4

BCRP = test system: BCRP; set-up: method as in earlier work; conditions: cited from earlier work
[6] = cited from earlier work
P-gp = test system: P-gp; set-up: method as in earlier work; conditions: cited from earlier work
[7] = set-up: method as in Jin et al. 37; conditions: ref Jin et al. 37, cited from earlier work; for predicted AUC increase for (S)- and/or (R)-warfarin: via CYP inhibition
CYP2C19 = conditions: cited from earlier work
CYP2B6 = conditions: cited from earlier work
CYP3A = test system: CYP3A; set-up: method as in Jin et al. 37; conditions: competitive inhibition; ref Jin et al. 37; cited from earlier work
P-glycoprotein = conditions: cited from earlier work
[8] = cited from earlier work; remark: listed apart in the source
[9] = co-administration of OLA and metformin in rats; cited from earlier work

CNC(=O)c1cc(Oc2ccc(NC(=O)Nc3ccc(Cl)c(C(F)(F)F)c3)c(F)c2)cc[n+]1[O-] [M-2, REG-N-oxide]
stable in plasma (long-term test) [1]: ≥ 180 days | R1 value (CYP2D6): > 1.1 | R1 value (CYP3A4): > 1.1 | AUC0–t of metabolite, times higher during combined administration of OLA and REG ([2]; IREG+OLA vs. IIREG control): 8.86 fold | Cmax of metabolite, times higher during combined administration of OLA and REG ([2]; IREG+OLA vs. IIREG control): 7.22 fold | R1 value (CYP2C9): > 1.1 | AUC0–t [3]: 9615.36 ± 2275.41 (23.7) ng × h/mL | AUC0–∞ [3]: 11,469.93 ± 2133.05 (18.6) ng × h/mL | R1 value (CYP2C8): > 1.1

NC(=O)c1cc(Oc2ccc(NC(=O)Nc3ccc(Cl)c(C(F)(F)F)c3)c(F)c2)cc[n+]1[O-] [M-5, N-desmethyl-REG-N-oxide]
stable in plasma (long-term test) [1]: ≥ 180 days | AUC0–t of metabolite, times higher during combined administration of OLA and REG ([2]; IREG+OLA vs. IIREG control): 17.83 fold | AUC0–∞ of metabolite, times higher during combined administration of OLA and REG ([2]; IREG+OLA vs. IIREG control): 18.82 fold | Cmax of metabolite, times higher during combined administration of OLA and REG ([2]; IREG+OLA vs. IIREG control): 16.32 fold | AUC0–t [3]: 803.19 ± 177.02 (22.0) ng × h/mL | AUC0–∞ [3]: 847.88 ± 178.97 (21.1) ng × h/mL | R1 value (CYP2C8): > 1.1

O=C(c1cc(Cc2n[nH]c(=O)c3ccccc23)ccc1F)N1CCN(C(=O)C2CC2)CC1 [OLA, Olaparib]
time-dependent CYP inhibition (CYP3A4/5; OLA 10 μM): little effect | time-dependent CYP inhibition (CYP3A4/5; OLA 2–200 μM): time-dependent CYP3A4/5 inhibitor | IC50 (CYP3A4/5; reversible inhibition, OLA 17–500 μM): 119000 nM | AUC0–t [4]: 28.28 ± 28.16 (99.6) µg × h/mL | AUC0–∞ [4]: 28.58 ± 28.31 (99.1) µg × h/mL | Cl/F [4]: 7.84 ± 15.21 (193.9) L/h | Cmax [4]: 8.72 ± 6.80 (78.0) µg/mL | t0.5 [4]: 4.79 ± 6.06 (126.5) h | tmax [4]: 1.16 ± 0.92 (78.9) h | inhibition of atorvastatin transport (P-gp vesicles): weak inhibitor | stable in plasma (long-term test) [1]: at least 181 days | inhibitor class as perpetrator towards REG, from AUC ratio ([2]; rat model, AUC ratio 3.39): moderate inhibitor | increase of AUC0–t of OLA after administration of OLA with REG ([5]; IREG+OLA vs. IIIOLA control): 3.4 fold | increase of AUC0–t of OLA by REG ([5]; IREG+OLA vs. IIIOLA control): 241.7% | increase of AUC0–∞ of OLA after administration of OLA with REG ([5]; IREG+OLA vs. IIIOLA control): 3.4 fold | increase of AUC0–∞ of OLA by REG ([5]; IREG+OLA vs. IIIOLA control): 240.6% | increase of Cmax of OLA after administration of OLA with REG ([5]; IREG+OLA vs. IIIOLA control): 2.0 fold | increase of Cmax of OLA by REG ([5]; IREG+OLA vs. IIIOLA control): 104.9% | t0.5 ([5]; OLA, single oral OLA 100 mg/kg b.w. + REG 20 mg/kg b.w. (IREG+OLA, n = 8), mean ± SD): 3.01 ± 0.86 (28.6) h | AUC0–∞ ratio of OLA (study group/control group) ([5]; rats, OLA victim, REG perpetrator): 3.39 and 3.41 | IC50 (BCRP): > 10000 nM | concentration in the gastrointestinal tract ([6]; from a 400 mg dose): 3683 µM | IC50 (P-gp): > 10000 nM

CNC(=O)c1cc(Oc2ccc(NC(=O)Nc3ccc(Cl)c(C(F)(F)F)c3)c(F)c2)ccn1 [REG, regorafenib]
stable in plasma (long-term test) [1]: ≥ 180 days | R1 value (CYP3A4): > 1.1 | increase of AUC0–∞ of REG after OLA administration ([2]; IREG+OLA vs. IIREG control): 3.38 fold | increase of t0.5 of REG after OLA administration ([2]; IREG+OLA vs. IIREG control): 1.82 fold | increase of tmax of REG after OLA administration ([2]; IREG+OLA vs. IIREG control): 2.66 fold | reduction of kel of REG in the study group ([2]; IREG+OLA vs. IIREG control): 1.77 fold | t0.5 ([2]; REG, single oral REG 20 mg/kg b.w. + OLA 100 mg/kg b.w. (IREG+OLA, n = 8), mean ± SD): 11.65 ± 3.70 (31.7) h | predicted effect on the AUCs of apixaban and rivaroxaban [7]: little or no effect | R1 value (CYP2C19): > 1.1 | R1 value (CYP2C9): > 1.1 | R1 value (CYP2B6): > 1.1 | Vd/F ([3]; REG): 2062.53 ± 615.85 (29.7) mL | tmax ([3]; REG): 5.8 ± 2.1 (36.9) h | R1 value (CYP2C8): > 1.1 | Ki (CYP3A): 20700 nM | IC50 (P-glycoprotein; in vitro, read-out: IC50): ~2000 nM | IC50 (P-glycoprotein; read-out: IC50 for P-gp inhibition): 2200 nM | estimated duodenal concentration ([6]; 160 mg REG dose, assumed duodenal volume of 250 mL): 1.3 mM

CNC(=O)c1ccccc1Sc1ccc2c(/C=C/c3ccccn3)n[nH]c2c1 [axitinib]
predicted AUC increase for (S)- and/or (R)-warfarin [7]: ≤ 1.2 fold

OC(Cn1cncn1)(Cn1cncn1)c1ccc(F)cc1F [fluconazole]
increase in AUC of OLA ([8]; concomitant fluconazole): 121% | increase in Cmax of OLA ([8]; concomitant fluconazole): 14%

CCC(C)n1ncn(-c2ccc(N3CCN(c4ccc(OCC5COC(Cn6cncn6)(c6ccc(Cl)cc6Cl)O5)cc4)CC3)cc2)c1=O (stereo not drawn) [itraconazole]
increase in AUC of OLA ([8]; concomitant itraconazole): 170% | increase in Cmax of OLA ([8]; concomitant itraconazole): 42%

Cc1ccc(NC(=O)c2ccc(CN3CCN(C)CC3)cc2)cc1Nc1nc(-c2cccnc2)cs1 [masitinib]
Ki (CYP3A): 1300 nM

CN(C)C(=N)N=C(N)N [metformin]
increase in metformin AUC [9]: 2.6 fold | increase in metformin Cmax [9]: 2.8 fold

COC(=O)c1ccc2c(c1)NC(=O)/C2=C(\Nc1ccc(N(C)C(=O)CN2CCN(C)CC2)cc1)c1ccccc1 [nintedanib]
predicted AUC increase for (S)- and/or (R)-warfarin [7]: ≤ 1.2 fold

Cc1cc(Nc2cc(N3CCN(C)CC3)nc(Sc3ccc(NC(=O)C4CC4)cc3)n2)[nH]n1 [tozasertib]
predicted AUC increase for (S)- and/or (R)-warfarin [7]: ≤ 1.2 fold

CC(=O)Nc1cccc(-n2c(=O)n(C3CC3)c(=O)c3c(Nc4ccc(I)cc4F)n(C)c(=O)c(C)c32)c1 [trametinib]
predicted AUC increase for (S)- and/or (R)-warfarin [7]: ≤ 1.2 fold

Clc1ccc(Nc2nnc(Cc3ccncc3)c3ccccc23)cc1 [vatalanib]
Ki (CYP3A): 200 nM
